According to patent publication US10752640B2, “Compounds active towards bromodomains” (NUEVOLUTION A/S, priority 2014, dated 2020):

Target: BRD4 protein (Homo sapiens, UniProt O60885)
Experiment: FRET assay, half maximal inhibitory concentration (IC50)
Type: binding
Details: BRD4 protein 50 nM, Biotin-H4KAc4 peptide 12.5 nM; List of Classification
Method: The compounds were biologically evaluated by determining the half maximal inhibitory concentration (IC50) by FRET assay. The IC50 is a measure of the effectiveness of a substance in inhibiting a specific biological or biochemical function.
For IC50 determinations, dose-response curves were generated, using a top concentration of 50 μM compound in 12.5% DMSO, followed by 10-fold dilutions in 12.5% DMSO. The composition of the reaction buffer was 50 mM HEPES, pH 7.5; 100 mM NaCl, 0.05% CHAPS.
The reaction was run in a final volume of 25 μl. The BRD4 protein (16.5 μl) was added to wells of 384w white Optiplates (Perkin Elmer) (50 nM final concentration) and 1 μl of compound dilution of DMSO control. Incubation time was 30 minutes at room temperature. In the next step, 2.5 μl Biotin-H4KAc4 peptide (Millipore 13-379) was added to the wells (final concentration was 12.5 nM), and the plates were incubated for 30 minutes at room temperature. Detection was performed by addition of 5 μl of a mix of mAb GST-XL665 (Cisbio 61GSTXLB) (10 nM final concentration) and Streptavidin Cryptate (Cisbio 610SAKLB) (2.4 nM final conc.) in reaction buffer with 0.4M KF and 0.05% BSA). The plates were incubated for one hour prior to reading on an Envision reader (Perkin Elmer)
Data was analyzed using GraphPad Prism, and IC50 data was obtained using non-linear regression curve fit using log(inhibitor) vs response (variable slope). All compounds were considered active although classified (according to the half maximal inhibitory concentration (IC50) by FRET assay) as follows: […]

Row | SMILES | IC50 [µM]
1 | Cc1cc(O)nc2ccc(NC(=O)c3cc(CN4CCNCC4)ccc3N3CCCC3)cc12 [Compound-2, N-(2-hydroxy-4-methylquinolin-6-yl)-5-(piperazin-1-ylmethyl)-2-(pyrrolidin-1-yl)benzamide] | < 0.2
2 | Cc1cc(O)nc2ccc(NC(=O)c3cc(CN4CCOCC4)ccc3N3CCCC3)cc12 [Compound-3, N-(2-hydroxy-4-methylquinolin-6-yl)-5-(morpholinomethyl)-2-(pyrrolidin-1-yl)benzamide] | < 0.2
3 | CC(=O)N1CCN(Cc2ccc(N3CCCC3)c(C(=O)Nc3ccc4nc(O)cc(C)c4c3)c2)CC1 [Compound-4, 5-[(4-acetylpiperazin-1-yl)methyl]-N-(2-hydroxy-4-methyl-6-quinolyl)-2-pyrrolidin-1-yl-benzamide] | < 0.2
4 | Cc1cc(O)nc2ccc(NC(=O)c3cc(S(=O)(=O)N4CCN(C)CC4)ccc3N3CCOCC3)cc12 [Compound-5, N-(2-hydroxy-4-methylquinolin-6-yl)-5-(4-methylpiperazin-1-ylsulfonyl)-2-morpholino benzamide] | < 0.2
5 | Cc1cc(O)nc2ccc(NC(=O)c3cc(S(=O)(=O)N4CCC(N(C)C)C4)ccc3N3CCOCC3)cc12 (stereo not drawn) [Compound-6, 5-[3-(dimethylamino)pyrrolidin-1-yl]sulfonyl-N-(2-hydroxy-4-methyl-6-quinolyl)-2-morpholino-benzamide] | < 0.2
6 | Cc1cc(O)nc2ccc(NC(=O)c3cc(S(=O)(=O)N4CC(N(C)C)C4)ccc3N3CCOCC3)cc12 [Compound-7, 5-[3-(dimethylamino)azetidin-1-yl]sulfonyl-N-(2-hydroxy-4-methyl-6-quinolyl)-2-morpholino-benzamide] | < 0.2
7 | Cc1cc(O)nc2ccc(NC(=O)c3cc(S(=O)(=O)N4CC(N)C4)ccc3N3CCOCC3)cc12 [Compound-8, 1-(3-(2-hydroxy-4-methylquinolin-6-ylcarbamoyl)-4-morpholinophenylsulfonyl) azetidin-3-aminium 2,2,2-trifluoroacetate] | < 0.2
8 | Cc1cc(O)nc2ccc(NC(=O)c3cc(C(=O)N(C)C)ccc3N3CCOCC3)cc12 [Compound-9, N3-(2-hydroxy-4-methyl-6-quinolyl)-N1,N1-dimethyl-4-morpholino-benzene-1,3-dicarboxamide] | < 0.2
9 | Cc1cc(O)nc2ccc(NC(=O)c3cc(C(=O)N4CCN(C)CC4)ccc3N3CCOCC3)cc12 [Compound-10, N-(2-hydroxy-4-methyl-6-quinolyl)-5-(4-methylpiperazine-1-carbonyl)-2-morpholino-benzamide] | < 0.2
10 | Cc1cc(O)nc2ccc(NC(=O)c3cc(C(=O)N4CCOCC4)ccc3N3CCOCC3)cc12 [Compound-11, N-(2-hydroxy-4-methylquinolin-6-yl)-5-(morpholine-4-carbonyl)-2-morpholinobenzamide] | 0.2 to 0.5
11 | Cc1cc(O)nc2ccc(NC(=O)c3cc(C(N)=O)ccc3N3CCOCC3)cc12 [Compound-12, N3-(2-hydroxy-4-methyl-6-quinolyl)-4-morpholino-benzene-1,3-dicarboxamide] | 0.2 to 0.5
12 | COCc1ccc(N2CCCC2)c(C(=O)Nc2ccc3nc(O)cc(C)c3c2)c1 [Compound-13, N-(2-hydroxy-4-methylquinlin-6-yl)-5-(methoxymethyl)-2-(pyrrolidin-1-yl) benzamide] | < 0.2
13 | Cc1cc(O)nc2ccc(NC(=O)c3cc(CO)ccc3N3CCCC3)cc12 [Compound-14, N-(2-hydroxy-4-methylquinlin-6-yl)-5-(hydroxymethyl)-2-(pyrrolidin-1-yl) benzamide] | 0.2 to 0.5
14 | Cc1cc(O)nc2ccc(NC(=O)c3cc(S(=O)(=O)N(C)C)ccc3N3CCN(C)CC3)cc12 [Compound-15, 5-(N, N-dimethylsulfamoyl)-N-(2-hydroxy-4-methylquinolin-6-yl)-2-(4-methylpiperazin-1-yl) benzamide] | < 0.2
15 | Cc1cc(O)nc2ccc(NC(=O)c3cc(S(=O)(=O)N(C)C)ccc3N3CCC(N(C)C)C3)cc12 (stereo not drawn) [Compound-16, 2-[3-(dimethylamino)pyrrolidin-1-yl]-5-(dimethylsulfamoyl)-N-(2-hydroxy-4-methyl-6-quinolyl)benzamide] | 0.2 to 0.5
16 | Cc1cc(O)nc2ccc(NC(=O)c3cc(S(=O)(=O)N(C)C)ccc3N3CCC(O)C3)cc12 (stereo not drawn) [Compound-17, 5-(dimethylsulfamoyl)-N-(2-hydroxy-4-methyl-6-quinolyl)-2-(3-hydroxypyrrolidin-1-yl)benzamide] | < 0.2
17 | Cc1cc(O)nc2ccc(NC(=O)c3cc(S(=O)(=O)N(C)C)ccc3NCCN(C)C)cc12 [Compound-18, 2-(2-dimethylaminoethylamino)-5-(dimethylsulfamoyl)-N-(2-hydroxy-4-methyl-6-quinolyl)benzamide] | > 10

Row | SMILES | IC50 [µM]
18 | Cc1cc(O)nc2ccc(NC(=O)c3cc(S(=O)(=O)N(C)C)ccc3NCCO)cc12 [Compound-19, 5-(dimethylsulfamoyl)-2-(2-hydroxyethylamino)-N-(2-hydroxy-4-methyl-6-quinolyl)benzamide] | > 10
19 | Cc1cc(O)nc2ccc(NC(=O)c3cc(S(=O)(=O)N(C)C)ccc3N3CC(N(C)C)C3)cc12 [Compound-20, 2-[3-(dimethylamino)azetidin-1-yl]-5-(dimethylsulfamoyl)-N-(2-hydroxy-4-methyl-6-quinolyl)benzamide] | 0.2 to 0.5
20 | Cc1cc(O)nc2ccc(N(C)C(=O)c3cc(S(=O)(=O)N(C)C)ccc3N3CCN(C)CC3)cc12 [Compound-21, 5-(N, N-dimethylsulfamoyl)-N-(2-hydroxy-4-methylquinolin-6-yl)-N-methyl-2-(4-methylpiperazin-1-yl) benzamide] | > 10
21 | Cc1cc(O)nc2ccc(N(C)C(=O)c3cc(S(=O)(=O)N4CCOCC4)ccc3N3CCCC3)cc12 [Compound-22, N-(2-hydroxy-4-methylquinolin-6-yl)-N-methyl-5-(morpholinosulfonyl)-2-(pyrrolidin-1-yl) benzamide] | > 10
22 | Cc1cc(O)nc2ccc(NC(=O)c3cc([N+](=O)[O-])cnc3N3CCCC3)cc12 [Compound-23, N-(2-hydroxy-4-methyl-6-quinolyl)-5-nitro-2-pyrrolidin-1-yl-pyridine-3-carboxamide] | 1 to 10
23 | Cc1cc(O)nc2ccc(NC(=O)c3cc(N)cnc3N3CCCC3)cc12 [Compound-24, 5-amino-N-(2-hydroxy-4-methyl-6-quinolyl)-2-pyrrolidin-1-yl-pyridine-3-carboxamide] | < 0.2
24 | Cc1cc(O)nc2ccc(NC(=O)c3cc(NCC(N)=O)cnc3N3CCCC3)cc12 [Compound-25, 5-[(2-amino-2-oxo-ethyl)amino]-N-(2-hydroxy-4-methyl-6-quinolyl)-2-pyrrolidin-1-yl-pyridine-3-carboxamide] | 0.2 to 0.5
25 | COCC1CCCN1c1ccc(CN2CCOCC2)cc1C(=O)Nc1ccc2nc(O)cc(C)c2c1 (stereo not drawn) [Compound-26, N-(2-hydroxy-4-methylquinolin-6-yl)-2-(2-(methoxymethyl)pyrrolidin-1-yl)-5-(morpholinomethyl) benzamide] | < 0.2
26 | Cc1cc(O)nc2ccc(NC(=O)c3cc(CN4CCOCC4)ccc3N3CCCC3c3cc[nH]n3)cc12 (stereo not drawn) [Compound-27, 2-(2-(1H-pyrazol-3-yl)pyrrolidin-1-yl)-N-(2-hydroxy-4-methylquinolin-6-yl)-5-(morpholinomethyl) benzamide] | 1 to 10
27 | O=C(Nc1ccc2nc(O)cc(C(F)(F)F)c2c1)c1cc(CN2CCOCC2)ccc1N1CCCC1 [Compound-28, N-(2-hydroxy-4-(trifluoromethyl)quinolin-6-yl)-5-(morpholinomethyl)-2-(pyrrolidin-1-yl) benzamide] | 0.5 to 1
28 | Cc1cc2nc(O)cc(C)c2cc1NC(=O)c1cc(CN2CCOCC2)ccc1N1CCCC1 [Compound-29, N-(2-hydroxy-4,7-dimethylquinolin-6-yl)-5-(morpholinomethyl)-2-(pyrrolidin-1-yl)benzamide] | < 0.2
29 | Cc1cc(O)nc2ccc(NC(=O)c3cc(CN4CCOCC4)ccc3N3CCCC3CO)cc12 (stereo not drawn) [Compound-30, N-(2-hydroxy-4-methylquinolin-6-yl)-2-(2-(hydroxymethyl)pyrrolidin-1-yl)-5-(morpholinomethyl) benzamide] | < 0.2
30 | Cc1cc(O)nc2ccc(NC(=O)c3cc(CN4CCOCC4)ccc3N3CCC(O)C3)cc12 (stereo not drawn) [Compound-31, N-(2-hydroxy-4-methyl-6-quinolyl)-2-(3-hydroxypyrrolidin-1-yl)-5-(morpholinomethyl)benzamide] | < 0.2
31 | Cc1cc(O)nc2ccc(NC(=O)c3cc(CN4CCOCC4)ccc3N3CCCC3CN(C)C)cc12 (stereo not drawn) [Compound-32, 2-(2-((dimethylamino)methyl)pyrrolidin-1-yl)-N-(2-hydroxy-4-methylquinolin-6-yl)-5-(morpholinomethyl) benzamide] | < 0.2
32 | Cc1cc(O)nc2ccc(NC(=O)c3nc(-c4nnn[nH]4)ccc3N3CCCC3)cc12 [Compound-33, N-(2-hydroxy-4-methylquinolin-6-yl)-3-(pyrrolidin-1-yl)-6-(1H-tetrazol-5-yl) picolinamide] | 1 to 10
33 | Cc1cc(O)nc2ccc(NC(=O)c3cc(CN4CCOCC4)ccc3N3CCCC3=O)cc12 [Compound-34, N-(2-hydroxy-4-methylquinolin-6-yl)-5-(morpholinomethyl)-2-(2-oxopyrrolidin-1-yl) benzamide] | 0.5 to 1
